Molecular target: T1, IspH (LytB) (Aquifex aeolicus, UniProt O67625)
T1 sequence (O67625 1-289): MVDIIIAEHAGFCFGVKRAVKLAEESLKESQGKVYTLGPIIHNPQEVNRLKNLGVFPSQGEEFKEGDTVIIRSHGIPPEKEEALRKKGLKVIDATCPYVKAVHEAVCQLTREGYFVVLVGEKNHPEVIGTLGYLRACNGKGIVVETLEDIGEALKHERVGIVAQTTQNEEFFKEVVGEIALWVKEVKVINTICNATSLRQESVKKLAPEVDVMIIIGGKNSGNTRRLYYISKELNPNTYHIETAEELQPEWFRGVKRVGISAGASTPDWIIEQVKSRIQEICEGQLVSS
Test: HYSCORE/CW-EPR with […] and […]-labeled IspH
Assay type: biochemical

BPH-293 [compound 7] gave an IC50 of 38 µM.
